Measurements published in US20160368919A1, “NOVEL PYRIDINE PYRAZINONES AS BET-FAMILY BROMODOMAIN INHIBITORS” (Pfizer Inc., priority 2015, published 2016).

Assays:
Type in all cases: cell-based
DU-145 cells, AR(−) = assay: CRPC cell proliferation assay (CellTiter-Glo), DU-145; conditions: CTG at 96h
Experimental: (§1) Castrate-Resistant Prostate Cancer (CRPC) Cell Proliferation Assay • Cells were seeded into 96-well plates at 2,000-10,000 cells/well in 100 uL medium. Four AR(+) cell lines (LnCaP, C4-2 (parental), C4-2AR-WT and C4-2AR—F876L) and one AR(−) cell line (DU-145) were studied. Compound treated cells were analyzed for cell density at 96h, using CellTiter-Glo® (CTG) reagent (Promega).

HCC2429 cells = assay: NMC HCC2429 cell proliferation assay (CellTiter-Glo); conditions: Homo sapiens; HCC2429, CTG at 96h
Experimental: NMC HCC2429 Cell Proliferation Assay • HCC2429 cells were plated into a 96-well plate (10,000 cells/well). Compounds or control vehicle (DMSO) were added at indicated concentrations. Compound-treated HCC2429 cells were analyzed for cell density at 96h using CellTiter-Glo® (CTG) reagent (Promega).

[1] = tested on: LPS-induced IL-6 production in human whole blood; assay: IL-6 human whole blood (HWB) assay, LPS-stimulated, HTRF detection; conditions: 1 ng/ml LPS, 4 hours
[2] = tested on: C4-2 (parental) cells, AR(+); assay: CRPC cell proliferation assay (CellTiter-Glo), C4-2; conditions: CTG at 96h
Experimental: as §1

C4-2AR-WT cells, AR(+) = assay: CRPC cell proliferation assay (CellTiter-Glo), C4-2AR-WT; conditions: CTG at 96h
Experimental: as §1

LnCaP cells, AR(+) = assay: CRPC cell proliferation assay (CellTiter-Glo), LnCaP; conditions: CTG at 96h
Experimental: as §1

[3] = tested on: CRPC cell lines (LnCaP, C4-2, C4-2AR-WT, C4-2AR-F876L, DU-145); assay: CRPC cell proliferation assay, summary over the cell lines; conditions: AR(+) cell lines, CTG at 96h
Experimental: Castrate-Resistant Prostate Cancer (CRPC) Cell Proliferation Assay • Cells were seeded into 96-well plates at 2,000-10,000 cells/well in 100 uL medium. Four AR(+) cell lines (LnCaP, C4-2 (parental), C4-2AR-WT and C4-2AR—F876L) and one AR(−) cell line (DU-145) were studied. Compound treated cells were analyzed for cell density at 96h, using CellTiter-Glo® (CTG) reagent (Promega). […] Example 10 and IBET-151 BET had submicromolar IC50 values in the AR(+) cell lines. The inhibitors maintained potency in C4-2 cells engineered to express wild type (WT) AR receptor (C4-2-AR-WT), as well as cells engineered to express the F876L mutation (C4-2-AR-F876L) that confers resistance to androgen receptor (AR) antagonists.

[4] = tested on: C4-2AR-F876L cells, AR(+); assay: CRPC cell proliferation assay (CellTiter-Glo), C4-2AR-F876L; conditions: CTG at 96h
Experimental: as §1

[5] = tested on: MYC, SOX2, involucrin and Keratin 14 expression in HCC2429 cells; assay: Biomarker analysis in HCC2429 cells (RT-PCR, Western blot)
Experimental: HCC2429 cells were plated into a 6-well plate (250,000 cells/well). Cells were treated with compounds or control vehicle (DMSO) at the indicated concentrations for 72 hrs. Cells were collected, washed in PBS, and split for western blot and RNA analysis.

OPM-2 cells = assay: OPM-2 cell proliferation assay (CellTiter-Glo)
Experimental: MM1.S (dexamethasone sensitive) and OPM-2 cells were purchased from ATCC and maintained in RPMI-1640 medium with 10% fetal bovine serum at 37 degrees, 5% CO2. Cells were seeded at 10,000 cells/well in 100 uL medium. The following day compounds or control vehicle (DMSO) were added at indicated concentrations in 10 ul volume. Compound treated OPM-2 cells and MM1.S cell were analyzed for cell density at 72h and 96h, respectively, using CellTiter-Glo® (CTG) reagent (Promega). The CTG assay measures the amount of ATP present, which indicates the number of viable cells in culture.

[6] = HCC2429, Western blot, 72 hrs, concentration-dependent

IC50 (DU-145 cells, AR(−); Homo sapiens): 1880 nM
IC50 (HCC2429 cells): 47 nM
IC50 [1]: 530 nM
IC50 (LnCaP cells, AR(+); Homo sapiens): 320 nM
IC50 values in the AR(+) cell lines [3]: submicromolar
Structure (SMILES): CCC(=O)N(C)c1ccc2nc(NCCC(=O)O)c(=O)n([C@@H](CC)c3ccccc3)c2n1 [Example 10, N-{6-[methyl(propanoyl)amino]-3-oxo-4-[(1S)-1-phenylpropyl]-3,4-dihydropyrido[2,3-b]pyrazin-2-yl}-beta-alanine]
Max % Inh (DU-145 cells, AR(−)): 55%
IC50 [2]: 500 nM
Max % Inh [2]: 87%
IC50 (C4-2AR-WT cells, AR(+)): 500 nM
Max % Inh (C4-2AR-WT cells, AR(+)): 85%
Max % Inh (LnCaP cells, AR(+)): 69%
IC50 [4]: 560 nM
Max % Inh [4]: 85%
mRNA expression of involucrin ([5]; HCC2429, RT-PCR, 72 hours, 50 nM, 200 nM and 500 nM, dose dependent): increased
MYC protein level [5, 6]: down-regulated
SOX2 protein level [5, 6]: down-regulated
IC50 (OPM-2 cells; Homo sapiens, OPM-2, CTG at 72h): 6 nM
inhibition of proliferation of OPM-2 cells (OPM-2 cells; dose dependent manner, FIG. 1.B): inhibited proliferation
